Calls of active or inactive are those of the source. The rule behind the calls is not given here. Bridge positions count the residues as written; N and C are the ends. Square brackets hold non-standard residues; d marks the D form. Peptide text beside a SMILES is read from it. S5 = C=CCCC[C@](C)(N)C(=O)O
Tests used:
[1] = system: NCI-H358; assay: Induction of apoptosis in human NCI-H358 cells harboring KRAS G12C mutant assessed as necrotic cells at 2.5 uM incubated for 24 hrs by Annexin V-FITC/PI staining based flow cytometric analysis (reference value: 0.28%); format: functional
[2] = system: NCI-H358; assay: Induction of apoptosis in human NCI-H358 cells harboring KRAS G12C mutant assessed as late apoptotic cells at 10 uM incubated for 24 hrs by Annexin V-FITC/PI staining based flow cytometric analysis (reference value: 28.2%); format: functional
[3] = system: NCI-H358; assay: Induction of apoptosis in human NCI-H358 cells harboring KRAS G12C mutant assessed as viable cells at 20 uM incubated for 24 hrs by Annexin V-FITC/PI staining based flow cytometric analysis (reference value: 67.2%); format: functional; conditions: NCI-H358, 24 h, read-out: Activity
[4] = system: A549; assay: Induction of apoptosis in human A549 cells harboring KRAS G12S mutant assessed as late apoptotic cells at 20 uM incubated for 24 hrs by Annexin V-FITC/PI staining based flow cytometric analysis (reference value: 25.4%); format: functional
[5] = system: NCI-H358; assay: Induction of cell cycle arrest in human NCI-H358 cells harboring KRAS G12C mutant assessed as reduction in CDK1 protein expression at 40 uM incubated for 24 hrs by Western blot analysis; format: functional, cell-based
[6] = system: NCI-H358; assay: Induction of apoptosis in human NCI-H358 cells harboring KRAS G12C mutant assessed as early apoptotic cells at 10 uM incubated for 24 hrs by Annexin V-FITC/PI staining based flow cytometric analysis (reference value: 4.34%); format: functional
[7] = system: NCI-H358; assay: Induction of cell cycle arrest in human NCI-H358 cells harboring KRAS G12C mutant assessed as accumulation at G2/M phase incubated for 24 hrs by PI staining based flow cytometric analysis; format: functional
[8] = system: NCI-H358; assay: Induction of apoptosis in human NCI-H358 cells harboring KRAS G12C mutant assessed as viable cells at 10 uM incubated for 24 hrs by Annexin V-FITC/PI staining based flow cytometric analysis (reference value: 67.2%); format: functional; conditions: NCI-H358, 24 h, read-out: Activity
[9] = system: GTPase KRas (Homo sapiens), P01116 [G12C]; assay: Binding affinity to biotinylated N-terminal His6-tagged recombinant KRAS G12C mutant (unknown origin) assessed as association constant by BLI method
Sequence of GTPase KRas (Homo sapiens), P01116 [G12C] (P01116 whole entry G12C): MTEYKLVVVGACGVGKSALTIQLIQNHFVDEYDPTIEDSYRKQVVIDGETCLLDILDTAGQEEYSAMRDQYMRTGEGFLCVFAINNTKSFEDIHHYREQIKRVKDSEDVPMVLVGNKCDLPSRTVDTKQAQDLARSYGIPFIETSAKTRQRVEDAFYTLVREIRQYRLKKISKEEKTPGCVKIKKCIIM

[10] = biological target: GTPase KRas (Homo sapiens, UniProt P01116, G12C); assay: Binding affinity to biotinylated N-terminal His6-tagged recombinant KRAS G12C mutant (unknown origin) by BLI method
Sequence of GTPase KRas (P01116 whole entry G12C): as above

[11] = system: NCI-H358; assay: Induction of apoptosis in human NCI-H358 cells harboring KRAS G12C mutant assessed as increase in bax protein level at 40 uM incubated for 24 hrs by Western blot analysis; format: functional, cell-based
[12] = system: A549; assay: Induction of cell cycle arrest in human A549 cells harboring KRAS G12S mutant assessed as as reduction in cyclin B1 protein expression at 40 uM incubated for 24 hrs by Western blot analysis; format: functional, cell-based
[13] = system: A549; assay: Induction of cell cycle arrest in human A549 cells harboring KRAS G12S mutant assessed as accumulation at G2/M phase at 10 to 40 uM incubated for 24 hrs by PI staining based flow cytometric analysis; format: functional
[14] = system: NCI-H358; assay: Induction of apoptosis in human NCI-H358 cells harboring KRAS G12C mutant assessed as late apoptotic cells at 2.5 uM incubated for 24 hrs by Annexin V-FITC/PI staining based flow cytometric analysis (reference value: 28.2%); format: functional
[15] = system: NCI-H358; assay: Induction of apoptosis in human NCI-H358 cells harboring KRAS G12C mutant assessed as necrotic cells at 10 uM incubated for 24 hrs by Annexin V-FITC/PI staining based flow cytometric analysis (reference value: 0.28%); format: functional
[16] = system: A549; assay: Induction of apoptosis in human A549 cells harboring KRAS G12S mutant assessed as necrotic cells at 10 uM incubated for 24 hrs by Annexin V-FITC/PI staining based flow cytometric analysis (reference value: 0.16%); format: functional
[17] = system: A549; assay: Induction of apoptosis in human A549 cells harboring KRAS G12S mutant assessed as necrotic cells at 2.5 uM incubated for 24 hrs by Annexin V-FITC/PI staining based flow cytometric analysis (reference value: 0.16%); format: functional
[18] = system: NCI-H358; assay: Induction of cell cycle arrest in human NCI-H358 cells harboring KRAS G12C mutant assessed as reduction in cyclin B1 protein expression at 40 uM incubated for 24 hrs by Western blot analysis; format: functional, cell-based
[19] = system: NCI-H358; assay: Antiproliferative activity against human NCI-H358 cells harboring KRAS G12C mutant incubated for 24 hrs by MTT assay; format: functional, cell-based
[20] = system: NCI-H358; assay: Induction of apoptosis in human NCI-H358 cells harboring KRAS G12C mutant assessed as early apoptotic cells at 20 uM incubated for 24 hrs by Annexin V-FITC/PI staining based flow cytometric analysis (reference value: 4.34%); format: functional
[21] = system: NCI-H358; assay: Induction of apoptosis in human NCI-H358 cells harboring KRAS G12C mutant assessed as increase in caspase3 protein level at 40 uM incubated for 24 hrs by Western blot analysis; format: functional, cell-based
[22] = system: A549; assay: Induction of apoptosis in human A549 cells harboring KRAS G12S mutant assessed as viable cells at 10 uM incubated for 24 hrs by Annexin V-FITC/PI staining based flow cytometric analysis (reference value: 68.3%); format: functional; conditions: A549, 24 h, read-out: Activity
[23] = system: GTPase KRas (Homo sapiens), P01116 [G12C]; assay: Binding affinity to biotinylated N-terminal His6-tagged recombinant KRAS G12C mutant (unknown origin) assessed as dissociation constant by BLI method
[24] = system: A549; assay: Induction of apoptosis in human A549 cells harboring KRAS G12S mutant assessed as increase in bax protein level at 40 uM incubated for 24 hrs by Western blot analysis; format: functional, cell-based
[25] = system: A549; assay: Induction of apoptosis in human A549 cells harboring KRAS G12S mutant assessed as necrotic cells at 20 uM incubated for 24 hrs by Annexin V-FITC/PI staining based flow cytometric analysis (reference value: 0.16%); format: functional
[26] = system: NCI-H358; assay: Induction of cell cycle arrest in human NCI-H358 cells harboring KRAS G12C mutant assessed as accumulation at G2/M phase at 10 to 40 uM incubated for 24 hrs by PI staining based flow cytometric analysis (reference value: 11.08%); format: functional
[27] = system: A549; assay: Induction of apoptosis in human A549 cells harboring KRAS G12S mutant assessed as early apoptotic cells at 20 uM incubated for 24 hrs by Annexin V-FITC/PI staining based flow cytometric analysis (reference value: 6.09%); format: functional
[28] = system: A549; assay: Induction of apoptosis in human A549 cells harboring KRAS G12S mutant assessed as decrease in bcl2 protein level at 40 uM incubated for 24 hrs by Western blot analysis; format: functional, cell-based
[29] = system: A549; assay: Induction of apoptosis in human A549 cells harboring KRAS G12S mutant assessed as viable cells at 2.5 uM incubated for 24 hrs by Annexin V-FITC/PI staining based flow cytometric analysis (reference value: 68.3%); format: functional; conditions: A549, 24 h, read-out: Activity
[30] = system: NCI-H358; assay: Induction of apoptosis in human NCI-H358 cells harboring KRAS G12C mutant assessed as decrease in bcl2 protein level at 40 uM incubated for 24 hrs by Western blot analysis; format: functional, cell-based

SMILES: CC[C@H](C)[C@H](NC(=O)CNC(=O)[C@H](Cc1ccccc1)NC(=O)[C@H](Cc1ccccc1)NC(=O)[C@H](CCCNC(=N)N)NC(=O)[C@H](CCCNC(=N)N)NC(C)=O)C(=O)N[C@@]1(C)CCC/C=C\CCC[C@@](C)(C(=O)N[C@@H](CC(C)C)C(=O)N[C@@H](CCCCN)C(=O)N[C@H](C(=O)N[C@@H](CCC(=O)O)C(=O)N[C@@H](CCC(=O)O)C(=O)NCC(=O)N[C@@H](CC(N)=O)C(=O)O)[C@@H](C)O)NC(=O)[C@H](CC(N)=O)NC(=O)[C@H](CC(=O)O)NC(=O)[C@H]([C@@H](C)O)NC(=O)[C@H](CC(C)C)NC(=O)[C@H](CC(=O)O)NC1=O (Ac-RRFFGI[S5]DLTDN[S5]LKTEEGN-OH; staple (Z) 7-13)
- Activity [1]: 0.14%
- Activity [2]: 40.8%
- viability at 20 µM [3]: 46.7%
- Activity [4]: 30.7%
- Activity [5]: Active
- Activity [6]: 6.37%
- Activity [7]: Dose-dependent effect
- viability at 10 µM [8]: 52.5%
- Ka [9]: 7.3 ×10³ /M.s
- Kd [10]: 870 nM
- Activity [11]: Active
- Activity [12]: inactive
- Activity [13]: inactive
- Activity [14]: 33%
- Activity [15]: 0.26%
- Activity [16]: 0.5%
- Activity [17]: 0.4%
- Activity [18]: Active
- Activity [19]: Dose-dependent effect
- Activity [20]: 6.49%
- Activity [21]: Active
- viability at 10 µM [22]: 67.6%
- Kdiss [23]: 6.37 ×10⁻³ /s
- Activity [24]: inactive
- Activity [25]: 0.33%
- Activity [26]: 34.4%
- Activity [27]: 1.68%
- Activity [28]: inactive
- viability at 2.5 µM [29]: 60.4%
- Activity [30]: Active
